For 87 compounds, melting point results are on record in a melting point compilation (Tetko et al.; mined from patent text by program, amines drawn as free bases though some values may be those of a salt).

The melting point is the temperature of the solid-liquid transition.

`NC(C(=O)O)C1CC(C(=O)O)C1C(=O)O` (configuration not stated) returned a melting point of 205 to 209 °C.
The result for `CCCc1c(OCCCBr)ccc(C(C)=O)c1O` reads 38 to 40 °C.
In the case of `Fc1ccc(OC2CN(CCc3c[nH]c4ccccc34)C2)cc1` it was 111 to 113 °C.
In the case of `CNc1nc(-c2cccc(NC(=O)c3ccncc3)c2)c2cc(OC)c(OC)cc2n1` it was 228 to 230 °C.
In the case of `O=C(NC(Cc1ccccc1)C(=O)O)c1ccc(-c2cnc(OCc3ccccc3)nc2)cc1` (configuration not stated), the melting point was determined as 184 °C.
In the case of `COC(=O)C(C)(C)CCCOc1c(C)cc(OC(=O)C(C)(C)C)c(C)c1C` it was 46 to 47 °C.
The result for `CC(O)c1ccc(Cc2c(Cl)cc(N3N=CCNC3=O)cc2Cl)cc1` (configuration not stated) reads 119 to 120 °C.
The result for `Nc1ncc(-c2ccnc(N3CCOCC3)n2)c2ccccc12` reads 255 to 256 °C; that for `CS(=O)(=O)Nc1ccc(C(=O)CN(Cc2ccccc2)Cc2ccccc2)cc1`, 131 to 134 °C; that for `CC(C)[C@H](NC(=O)N(C)Cc1cscn1)C(=O)N[C@@H](Cc1ccccc1)C[C@H](O)[C@H](Cc1ccccc1)NC(=O)[C@@H](NC(=O)N(C)Cc1cscn1)C(C)C`, 154 to 156 °C.
Turning to `CCOC(=O)C1(c2ccccc2)CCN(C2CCC(C#N)(c3ccc(F)cc3C)CC2)CC1` (configuration not stated), the melting point is 135 °C.
In the case of `COc1ccc(CS[C@@H]2C[C@@H](C(=O)OCc3ccccc3)N(S(=O)(=O)c3ccc4ccccc4c3)C2)cc1` it was 90 to 91 °C.
The result for `O=c1c2cc(F)c(Cl)nc2n(-c2cccc(C(F)(F)F)c2)c(=O)n1OCc1ccccc1` reads 207 to 208 °C.
In the case of `CC(=O)OC1CCC2C3CCC4=CC(=O)CCC4(CO)C3CCC12C` (configuration not stated) it was 166 to 168 °C; in that of `CCCCOC1C=CC(=O)N1S(=O)(=O)c1ccccn1` (configuration not stated), 74 to 75 °C; in that of `CSc1ccc([N+](=O)[O-])c2nonc12`, 118 to 120 °C.
Turning to `COc1cc2nc(N3CCN(C(=O)C=Cc4ccc(N(C)C)cc4)CC3)nc(N)c2cc1OC`, the melting point was 288 to 289 °C.
For the compound `CCn1c(NC)nc(=O)c2ccccc21`, the melting point lay in the range of 262 to 264 °C.
In the case of `CN1CCN(C2=CCCc3ccc(OCc4ccc(Cl)cc4)cc32)CC1` it was 115 to 116 °C.
Compound `S=P(SC1CCCCC1)(C1CCCCC1)C1CCCCC1` showed a melting point of 82 to 85 °C.
In the case of `CCCCCCCCCCCCCCCCNc1ccc(C(=O)OCCCO)cc1` it was 67 to 69 °C; in that of `CC(SC1COC(c2ccc(C(=O)Nc3ccc(C#N)cc3F)cc2)OC1)C(O)(Cn1cncn1)c1ccc(F)cc1F` (configuration not stated), 136 °C; in that of `CC(CCC(F)(F)C(C)(C)O)C1CCC2C3CCC4=CC(=O)C=CC4(C)C3CCC12C` (configuration not stated), 176 to 177 °C.
The result for `O=C(NC1CCC2(O)C3Cc4ccc(O)c5c4C2(CCN3CC2CC2)C1O5)c1ccccc1` (configuration not stated) reads 182 to 185 °C.
For `O=C1C(c2ccccc2)c2ccccc2SN1c1ccccc1O` (configuration not stated), the melting point lay within 165 to 168 °C.
The compound `Cc1c(Cl)c(Oc2c(Cl)cc(C(F)(F)F)cc2Cl)nn1C(=O)NC(C)C` returned a melting point of 109 to 111 °C.
In the case of `c1cc(CN2CCCCC2)cc(OCCCNc2ccnc3ccccc23)c1` it was 127 to 128 °C; in that of `CC(NC(=O)Cc1cc(F)cc(F)c1)C(=O)NC1C(=O)NC(c2ccccc2)c2ccccc21` (configuration not stated), 244 °C.
The result for `Cn1ncc(Cl)c(NCCN2CCC(c3noc4cc(F)ccc34)CC2)c1=O` reads 108 to 109 °C; that for `COC(=O)c1c(N)c(-c2ccc(I)cc2)nc2ccc(F)cc12`, 223 to 225 °C.
As for `Cc1ccc(C=CC2CCC(c3ccccc3)(N(C)C)CC2)cc1` (configuration not stated), the melting point is 130 to 145 °C.
The result for `CONCc1nc2c(N)nc(C)c(C)c2n1CC(C)C` reads 154 to 156 °C; that for `N#Cc1ncn2c(C(F)(F)F)cc(-c3ccc(C(F)(F)F)cc3)nc12`, 236 °C.
Turning to `CCSc1ccc2cc(C(C)=O)ccc2c1`, the melting point was 69 °C.
In the case of `O=C1C=CC(c2cccc(F)c2)(c2cccc(F)c2)CC1` it was 95 °C; in that of `O=C(O)c1cc2cc(Cl)ccc2[nH]c1=O`, over 310 °C.
In the case of `CNC(=O)NC(=O)/C(=C/C(C)C)c1ccc(Cl)c(Cl)c1` it was 177 to 178 °C.
The result for `CCCC(=O)c1cnc2c(F)cccc2c1Nc1ccc(O)cc1C` reads 205 to 207 °C; that for `COc1ccccc1-c1nc(=O)c2ccccc2s1`, 144 °C.
As for `COc1ccc(C(=O)NC(=O)Nc2ccc3c(c2)NC(=O)/C3=C/c2ccco2)cc1`, the melting point fell in the range of 278 to 283 °C.
In the case of `O=S(=O)(Cc1ccccc1)N1CCC[C@H]1C(=S)OCCCc1ccccc1`, the melting point lay in the range of 62 to 64 °C.
As to `COCCOCc1c(CN(C)CC(O)c2cccnc2)sc2c(=O)c(C(=O)NCc3ccc(Cl)cc3)cn(C)c12` (configuration not stated), the melting point was 129 to 132 °C.
In the case of `CCOC(=O)CN1C(=O)C(N2C(=O)c3ccccc3C2=O)CCCc2ccccc21` (configuration not stated) it was 79 to 81 °C.
Compound `CCOC(=O)c1cc(=O)c2ccc(N)cc2o1` showed a melting point of 192 to 194 °C.
The result for `COc1ccc(SCc2ccccc2)cc1` reads 48 to 50 °C; that for `CC(C)CC(S)C(=O)NC1(C(=O)NC(Cc2ccc(-c3ccc(-c4cccc5ccccc45)cc3)cc2)C(=O)O)CCCC1` (configuration not stated), 187 to 189 °C.
In turn, `O=C(O)CCCCCCCc1nc(-c2ccccc2)c(-c2ccccc2)o1` came in with a melting point of 82 to 83 °C.
Compound `O=C1[C@@H]2[C@H](O)CCN2C(=O)N1c1ccc(Br)c2ccccc12` (relative stereo) registered a melting point of 204 to 206 °C.
In turn, `CCOC(=O)c1ccc(Oc2ccc(F)cc2)nc1` came in with a melting point of 68 °C.
In turn, `CCCCCCCCCCCCCCc1cc(C(=O)O)c[nH]1` came in with a melting point of 83 to 85 °C.
Compound `Cc1ccc(-c2c(C#N)cccc2C#N)cc1` registered a melting point of 184 to 186 °C.
The result for `Cc1cccc(C(=O)c2[nH]c3cc(Cl)ccc3c2N)n1` reads 210 to 211 °C.
The result for `Cc1nc2ccc(-c3ccc(OCC4(NC(=O)C5CC5)COC4)cc3)nn2c1-c1cnc(N)c(C(F)(F)F)c1` reads 191 to 193 °C; that for `Nc1nc(N)c([N+](=O)[O-])c(OCc2ccccc2)n1`, 194 to 195 °C.
With `Cc1cc(-c2cc(C(F)F)n3ncc(-c4nc(-c5ccc(N)nc5)no4)c3n2)ccc1C(F)(F)F`, the melting point was found to be 231 °C.
The result for `CC(C)c1cccc(C(C)C)c1NC(=O)NCC1(c2ccc(C(F)(F)F)cc2)CCCC1` reads 196 to 197 °C; that for `CCC(C)NC(=O)NCC=CCOc1cc(CN2CCCCC2)ccn1` (configuration not stated), 72 to 74 °C; that for `O=C(CC(F)(F)F)NNc1nccc(-c2ccc(OC3CCOCC3)c(Cl)c2)c1Cl`, 191 °C.
Take `CCOC(=O)c1sc2ccc(O)cc2c1Cl`: the melting point is 160 to 161 °C.
In the case of `CCCCn1c(=O)[nH]c2nc3ccccc3n2c1=O` it was 275 to 280 °C.
`COc1ccc2c(c1)CCC(CC(=O)N1CCCCC1)C2` (configuration not stated) had a melting point of 59 to 61 °C.
The result for `O=C(OCc1ccccc1)c1ncc(OCc2ccccc2)c(OCc2ccccc2)c1Br` reads 120 °C; that for `COc1cc(Nc2nccc(-c3cccc(NC(C)=O)c3)n2)cc(OC)c1OC`, 162 to 164 °C.
The result for `Nc1nc(N)c(-c2cccc3ccccc23)c(C(F)(F)F)n1` reads 224 to 226 °C; that for `CC(C)(C)OC(=O)N1C2CCC1C(=O)C2` (configuration not stated), 60 to 62 °C.
Regarding `COc1cccc(-n2c(=O)n(O)c(=O)c3cc(F)c(N4CCN(C)CC4)cc32)c1`, the melting point was 158 to 160 °C.
In the case of `Nc1nc2c(nc(Br)n2Cc2ccc(Cl)cc2)c(=O)[nH]1` it was over 300 °C.
The result for `O=C1C(O)SCN1c1cccc([N+](=O)[O-])c1` (configuration not stated) reads 129 to 131 °C; that for `CC(=O)Oc1ccccc1C(=O)ON(C(N)=O)C(C)c1cc2ccccc2s1` (configuration not stated), 141 to 143 °C.
In turn, `Clc1cc(N2CCC(N3CCN(c4cccc5[nH]ccc45)CC3)CC2)c2ncccc2c1` had a melting point of 224 °C.
In the case of `O=C(NCCCCn1ccnc1)c1ccco1`, the melting point is 88 to 90 °C.
In the case of `CCCCCCCCOc1cccc2c1C(=O)c1cccc(OCCCCCCCC)c1C2=O` it was 90 to 94 °C; in that of `CC(=O)Nc1c(C(=O)c2ccccc2)[nH]c2ccc(N)cc12`, 254 to 256 °C.
In turn, `O=C1c2ccccc2C(O)N1CCCN1CCN(c2ccc(Cl)cc2)CC1` (configuration not stated) yielded a melting point of 173 °C.
In the case of `CCCN(CCCCc1c[nH]c2ccc(F)cc12)C1COc2c(ccc3ncccc23)C1` (configuration not stated) it was 164 °C; in that of `Cn1c(=O)c2c(C#N)cccc2n2cnc(-c3noc(C4CC4)n3)c12`, 115 to 125 °C.
`COC(=O)c1cccc(CSc2c(O)cc(-c3ccccc3)oc2=O)c1` displayed a melting point of 170 to 171 °C.
In the case of `Cc1c(C)c2c(c(C)c1O)CC[C@](C)(C(=O)N[C@H]1CCOC1O)O2` (some centres not stated), the melting point was in the range of 67 to 70 °C.
The result for `CCc1nc(N)nc(N)c1N1CCN(c2ccc(C(=O)O)cc2)CC1` reads over 300 °C; that for `Cc1nnc2n1-c1ccc(Cl)cc1C(N1CCCCC1)=NC2`, 238 to 243 °C.
For `CCOC(=O)CC[C@H](NC(=O)CCc1cc(Cl)ccc1C(=O)CCCNC(C)=O)C(=O)OCC`, the melting point was 109 to 111 °C.
Consider `COCOc1ccccc1OCBr`, for which the melting point is 40 to 42 °C.
Regarding `NS(=O)(=O)c1ccc(-c2c(-c3ccccc3)noc2Cl)cc1`, the melting point fell in the range of 186 to 187 °C.
The result for `COc1ccc2[nH]c3c(c2c1)C[C@@]1(C)C(=O)N(CCN2CCN(C)CC2)C(=O)N1[C@@H]3c1cccc(O)c1` (racemic) reads 224 to 227 °C; that for `Cc1cc(C)c(Nc2nc(C)ncc2S(=O)(=O)c2ccc(-c3ncc[nH]3)cc2)c(C)c1`, 282 to 284 °C; that for `O=C(O)c1ccccc1SCc1nccc2ccccc12`, 170 to 172 °C.
In the case of `CS(=O)(=O)c1ccc(-c2cnn(CC(F)(F)F)c(=O)c2-c2ccc(S(C)(=O)=O)cc2)cc1` it was 212 to 213 °C.
